Data taken from ChEMBL document CHEMBL1201862, “PubChem BioAssay data set” (2004).
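Results reflect a 48-hour exposure of cells in 96-well plates to compound at five concentrations. GI50: concentration for 50% inhibition of growth.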 The source made the active and inactive calls. Rule as the data show it: active = GI50 up to about 1.1 µM and inactive = higher.

Tests used:
Experiment in all cases: inhibition of tumour cell growth, NCI panel, 48 h
OVCAR-3 = system: OVCAR-3
786-0 = system: 786-0
NCI-H460 = system: NCI-H460
NCI/ADR-RES = system: NCI/ADR-RES
HOP-62 = system: HOP-62
MDA-N = system: MDA-N
ACHN = system: ACHN
SK-MEL-2 = system: SK-MEL-2
PC-3 = system: PC-3
OVCAR-4 = system: OVCAR-4
DU-145 = system: DU-145
SK-MEL-5 = system: SK-MEL-5
M14 = system: M14
SN12C = system: SN12C
SNB-19 = system: SNB-19
SK-OV-3 = system: SK-OV-3
HL-60 = system: HL-60

Measured: GI50

C=CC(c1ccccc1)C1(O)c2cccc(O)c2C(=O)c2c(O)cccc21 (configuration not stated)
inactive: OVCAR-3 18 µM | 786-0 17.4 µM | NCI-H460 17.3 µM | NCI/ADR-RES 11.5 µM | HOP-62 17.3 µM | MDA-N 5.57 µM | ACHN 17.8 µM | SK-MEL-2 12.4 µM | PC-3 13.9 µM | OVCAR-4 13.7 µM | DU-145 14.5 µM | SK-MEL-5 17.3 µM | M14 18.4 µM

CCOC(=O)c1c(-c2ccc(OC)cc2)ccn1C
inactive: SN12C > 10 µM | SNB-19 > 10 µM | OVCAR-3 > 10 µM | 786-0 > 10 µM | NCI-H460 > 10 µM | NCI/ADR-RES > 10 µM | HOP-62 > 10 µM | ACHN > 10 µM | SK-OV-3 > 10 µM | SK-MEL-2 > 10 µM | OVCAR-4 > 10 µM | DU-145 > 10 µM | SK-MEL-5 > 10 µM | M14 > 10 µM

Cn1c(=O)cc(NCc2ccc(Cl)cc2)[nH]c1=O
inactive: SN12C > 100 µM | SNB-19 43.3 µM | OVCAR-3 > 100 µM | 786-0 54 µM | NCI-H460 > 100 µM | NCI/ADR-RES 72.9 µM | HOP-62 22.4 µM | MDA-N > 100 µM | ACHN 49.7 µM | SK-OV-3 > 100 µM | SK-MEL-2 > 100 µM | PC-3 > 100 µM | OVCAR-4 > 100 µM | SK-MEL-5 > 100 µM | M14 > 100 µM

COc1cc2nc(-c3cccs3)nc(Nc3cccc([N+](=O)[O-])c3)c2cc1OC
inactive: SN12C 17.4 µM | SNB-19 17.6 µM | OVCAR-3 20.7 µM | 786-0 21.3 µM | NCI-H460 26.3 µM | NCI/ADR-RES 20.8 µM | HOP-62 18.7 µM | ACHN 15.7 µM | SK-OV-3 20.3 µM | SK-MEL-2 20.7 µM | PC-3 19.6 µM | OVCAR-4 30.9 µM | DU-145 16.3 µM | SK-MEL-5 29.2 µM | M14 17 µM | HL-60 43.4 µM

COc1ccccc1N1CCN(CCCNC(=O)c2cc(Cl)c(N)c(Cl)c2)CC1
inactive: SN12C 20 µM | SNB-19 41.3 µM | 786-0 33.3 µM | NCI-H460 23.3 µM | NCI/ADR-RES 36.8 µM | HOP-62 29.7 µM | ACHN 55.2 µM | SK-OV-3 69.8 µM | OVCAR-4 52 µM | DU-145 88.1 µM | SK-MEL-5 18.2 µM | M14 19.4 µM | HL-60 15.5 µM

CCOC(=O)/C(=C\NC#N)c1nc2ccccc2[nH]1
inactive: SN12C > 100 µM | SNB-19 > 100 µM | OVCAR-3 > 100 µM | 786-0 > 100 µM | NCI-H460 60.5 µM | NCI/ADR-RES > 100 µM | HOP-62 > 100 µM | MDA-N > 100 µM | ACHN 30.2 µM | SK-OV-3 > 100 µM | OVCAR-4 > 100 µM | DU-145 > 100 µM | SK-MEL-5 65.2 µM | M14 > 100 µM | HL-60 45.5 µM

O=S(=O)(O)c1ccc(-c2c3nc(c(-c4ccc(S(=O)(=O)O)cc4)c4ccc([nH]4)c(-c4ccc(S(=O)(=O)O)cc4)c4nc(c(-c5ccc(S(=O)(=O)O)cc5)c5ccc2[nH]5)C=C4)C=C3)cc1
inactive: SN12C 42.7 µM | SNB-19 65.9 µM | OVCAR-3 36.3 µM | 786-0 > 100 µM | NCI-H460 57.5 µM | NCI/ADR-RES 90.6 µM | HOP-62 > 100 µM | ACHN 45.7 µM | SK-OV-3 58.3 µM | SK-MEL-2 > 100 µM | PC-3 > 100 µM | OVCAR-4 29 µM | DU-145 39.1 µM | SK-MEL-5 51.2 µM | M14 > 100 µM | HL-60 55.5 µM
